# From paper PMC8658016, “Identification of New Compounds with Anticonvulsant and Antinociceptive Properties in a Group of 3-substituted (2,5-dioxo-pyrrolidin-1-yl)(phenyl)-Acetamides” (International Journal of Molecular Sciences, 2021)
# Tests used:
# mice = test: Subcutaneous pentylenetetrazole (scPTZ) seizure test; assay type: in vivo, mouse; details: mice i.p.
# rats [1] = test: Carrageenan-induced paw edema; assay type: in vivo, rat; details: 80 mg/kg
# Description: (§1) To test the anti-inflammatory activity and the potential to attenuate inflammatory pain, we tested compound 14 in the model of carrageenan-induced aseptic inflammation. In this model, the subplantar injection of carrageenan induced an edema, mechanical, and thermal hyperalgesia. […] In our opinion, the most surprising and interesting was the long-lasting anti-edematous effect. It may result from the pharmacokinetic properties of compound 14, but also from its unique mechanism. Since inflammation is one of the critical components of neuropathy, the anti-inflammatory activity of compound 14 may be a valuable and distinctive property from classical ASDs used to treat neuropathic pain [33]. […] The pain threshold reached 87.3%, 90.9%, and 89.7% of its initial value 3, 6, and 24 h after carrageenan injection, respectively. […] The initial latency for compound 14-treated animals was 8.95 ± 0.4 s. The administration of compound 14 changed the values to 127.0%, 102.0%, 79.8%, 83.8%, and 164.4% of the initial value 1, 2, 3, 6-, and 24-h following carrageenan injection, respectively.
# (§2) The experiments were conducted on adult male Albino Swiss mice (CD-1, 18–25 g) and male Wistar rats (Krf:(WI) WU), 180–250 g) as described previously. The minimum number of animals used needed to obtain definite and normally distributed results with the utilized test. Behavioral measures were scored by trained observers, which were blind to experimental conditions. The following devices were used in the experiments: Analgesy Meter (37215, Ugo Basile), Plantar Test Apparatus (EFV5, Commat Ltd., Turkey), Plethysmometer (Plethysmometer 7140, Ugo Basile), Electronic von Frey unit (BIOSEB, France). All procedures were performed according to the European Union Directive of 22 September 2010 (2010/63/EU) and approved by the Local Ethics Committee for Experiments on Animals in Krakow, Poland (resolution no. 105/2016).
# Figure 8 Effect of compound 14 on carrageenan-induced oedema (A), mechanical hyperalgesia (B), and thermal hyperalgesia (C), developed after subplantar injection of 1% carrageenan in rats. Data are expressed as means ± S.E.M. for 6 animals; 0—the initial value considered as the paw volume (A) or nociceptive reaction (B,C) before carrageenan administration. Statistical significance compared to vehicle-treated animals (control): * p < 0.05, ** p < 0.01, *** p < 0.001, **** p < 0.0001. Statistical analysis: two-way ANOVA post hoc Bonferroni test. Statistical significance in different time points of control group: ^# p < 0.05, ^## p < 0.01, ^### p < 0.001. Statistical analysis: one-way ANOVA, followed by Dunnett’s multiple comparison test (GraphPad Prism 8.0.1).
# rats [2] = test: Carrageenan-induced mechanical hyperalgesia; assay type: in vivo, rat; details: 80 mg/kg
# Description: as §1
# as §2, with “All procedures were performed according to the European Union Directive of 22 September 2010 (2010/63/EU) and approved by the Local Ethics Committee for Experiments on Animals in Krakow, Poland (resolution no. 105/2016).” left out
# Figure 8 Effect of compound 14 on carrageenan-induced oedema (A), mechanical hyperalgesia (B), and thermal hyperalgesia (C), developed after subplantar injection of 1% carrageenan in rats. Data are expressed as means ± S.E.M. for 6 animals; 0—the initial value considered as the paw volume (A) or nociceptive reaction (B,C) before carrageenan administration. […]
smiles,measurement,setting,value
"CN(C)C1CC(=O)N(C(C(=O)N2CCN(c3cccc(C(F)(F)F)c3)CC2)c2ccccc2)C1=O.Cl (stereo not shown) [Compound 14, 3-(Dimethylamino)-1-(2-oxo-1-phenyl-2-(4-(3-(trifluoromethyl)phenyl)-piperazin-1-yl)ethyl)pyrrolidine-2,5-dione hydrochloride]",ED50,"mice; Mus musculus, ip, 95% confidence interval in parentheses",67.4 mg/kg
same,scPTZ screening: number of mice protected / number of mice tested,"mice; 100 mg/kg, 0.5 h",2/4
same,reduction of paw edema,rats [1]; 1 h after carrageenan,36.8%
same,reduction of paw edema,rats [1]; 2 h after carrageenan,55.8%
same,reduction of paw edema,rats [1]; 3 h after carrageenan,62.9%
same,reduction of paw edema,rats [1]; 6 h after carrageenan,68.6%
same,reduction of paw edema,rats [1]; 24 h after carrageenan,74.3%
same,"withdrawal threshold, % of the initial reaction (mechanical hyperalgesia)",rats [2]; 3 h after carrageenan,113.3%
same,"withdrawal threshold, % of the initial reaction (mechanical hyperalgesia)",rats [2]; 6 h after carrageenan,110.1%
same,"withdrawal threshold, % of the initial reaction (mechanical hyperalgesia)",rats [2]; 24 h after carrageenan,111.4%
